Measured values published in patent US8796284B2, “4-aminopyrimidine derivatives and their as as adenosine A2a receptor antagonists” (Palobiofarma, S.L., priority 2010, dated 2014).

Biological target: A2a adenosine receptor (Homo sapiens (Human), UniProt P29274)
Assay: Cyclic adenosine monophosphate (cAMP) production measurement in CHO-A2A cells
Assay type: cell-based
Conditions: 1 μM NECA, 30 μM rolipram, cAMP enzymeimmunoassay
Description: (§1) Concentration-response binding competition curves were carried out by assaying 6 different concentrations (range between 10 nm to 100 μM). […] IC50 values were obtained by fitting the data with non-linear regression, with Prism 2.1 software (GraphPad, San Diego, Calif.). Cyclic Adenosine Monophosphate Production Measurement.
These assays were performed at adenosine receptors transfected using a cAMP enzymeimmunoassay kit (Amersham Biosciences). CHO-A2A cells were seeded (10000 cells/well) in 96-well culture plates and incubated at 37° C. in an atmosphere with 5% CO2 in Dulbecco's Modified Eagle's Medium Nutrient Mixture F-12 (DMEM F-12), containing 10% Foetal Calf Serum (FCS) and 1% L-Glutamine. Cells were washed 3× with 200 μl assay medium (DMEM-F12 and 25 mM HEPES pH=7.4) and pre-incubated with assay medium containing 30 μM rolipram and test compounds at 37° C. for 15 min. 1 μM NECA was incubated for 15 min at 37° C. (total incubation time 30 min). Reaction was stopped with lysis buffer supplied in the kit and the enzymeimmunoassay was carried out for detection of intracellular cAMP at 450 nm in an Ultra Evolution detector (Tecan). Data were fitted by non-linear regression using GraphPad Prism v2.01 (GraphPad Software).

Chain of A2a adenosine receptor (P29274 whole entry): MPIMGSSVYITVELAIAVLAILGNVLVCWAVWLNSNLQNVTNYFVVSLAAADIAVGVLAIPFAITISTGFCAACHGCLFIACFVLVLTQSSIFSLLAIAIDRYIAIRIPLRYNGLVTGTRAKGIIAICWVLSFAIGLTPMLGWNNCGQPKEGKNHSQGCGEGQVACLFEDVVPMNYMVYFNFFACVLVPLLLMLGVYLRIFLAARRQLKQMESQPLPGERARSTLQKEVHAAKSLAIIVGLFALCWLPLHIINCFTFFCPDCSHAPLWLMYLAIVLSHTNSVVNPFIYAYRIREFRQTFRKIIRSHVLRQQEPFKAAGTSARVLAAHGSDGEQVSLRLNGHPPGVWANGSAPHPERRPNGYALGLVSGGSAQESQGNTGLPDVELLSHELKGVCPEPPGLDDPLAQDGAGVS

Ki [µM]	Compound
0.05	CN(C)c1nc(-n2cccn2)nc(N)c1Br [Example 13, 5-bromo-N^4,N^4-dimethyl-2-(1H-pyrazol-1-yl)pyrimidine-4,6-diamine]
0.012	Nc1nc(-c2nccs2)nc(-c2nccs2)c1Br [Example 93, 5-Bromo-2,6-di(thiazol-2-yl)pyrimidin-4-amine]
0.06	Nc1nc(-n2cccn2)nc(NC2CC2)c1Br [Example 8, 5-bromo-N^4-cyclopropyl-2-(1H-pyrazol-1-yl)pyrimidine-4,6-diamine]

Biological target: hA2a receptors (Homo sapiens (Human), UniProt P29274)
Sequence (P29274 whole entry): as above
Assay: Adenosine A2a receptor subtype competition radioligand binding assay
Conditions: membranes from hA2a receptors transfected to HeLa cells, [3H]ZM241385 as radioligand, Cheng-Prusoff
Description: Pharmacological Activity Adenosine A2a Receptor Subtype Competition Radioligand Binding Assay
Human membranes from recombinant adenosine receptors were purchased from Receptor Biology, Inc. (USA)
Competition assays were carried out by incubation of membranes from hA2a receptors transfected to HeLa cells, [^3H]ZM241385 as radioligand, buffer (50 mM Tris-HCl (pH=7.4), 10 mM MgCl2, 1 mM EDTA, 2 units/ml adenosine deaminase), and unlabelled ligand in a total volume of 0.2 ml for 30 min at 25° C. NECA was used to determinate non-specific binding. Filter over Schleicher&Schuell GF/52 filters (pre-soaked 0.5% polyethylenimine) in a Brandel cell harvester. Unbound radioligand was removed with 3×250 μl ice-cold 50 mM Tris-HCl (pH=7.4), 10 mM MgCl and 1 mM EDTA.
as §1

Compound	Ki [µM]
CN(C)c1nc(-n2cccn2)nc(N)c1Br [Example 13, 5-bromo-N^4,N^4-dimethyl-2-(1H-pyrazol-1-yl)pyrimidine-4,6-diamine]	0.035
Nc1nc(-n2cccn2)nc(N2CCCCC2)c1Br [Example 5, 5-bromo-6-(piperidin-1-yl)-2-(1H-pyrazol-1-yl)pyrimidin-4-amine]	0.014
Nc1nc(-n2cccn2)nc(NC2CCC2)c1Br [Example 10, 5-bromo-N^4-cyclobutyl-2-(1H-pyrazol-1-yl)pyrimidine-4,6-diamine]	0.021
COC[C@H]1CCCN1c1nc(-n2cccn2)nc(N)c1Br [Example 20, 5-bromo-6-((R)-2-(methoxymethyl)pyrrolidin-1-yl)-2-(1H-pyrazol-1-yl)pyrimidin-4-amine]	0.014
CNc1nc(-n2cccn2)nc(N)c1Br [Example 24, 5-bromo-N^4-methyl-2-(1H-pyrazol-1-yl)pyrimidine-4,6-diamine]	0.016
Nc1nc(-n2cccn2)nc(N2CCCC2)c1Br [Example 3, 5-bromo-2-(1H-pyrazol-1-yl)-6-(pyrrolidin-1-yl)pyrimidin-4-amine]	0.011
Nc1nc(-n2cccn2)nc(N2CCC2)c1Br [Example 9, 6-(azetidin-1-yl)-5-bromo-2-(1H-pyrazol-1-yl)pyrimidin-4-amine]	0.033
Nc1nc(-n2cccn2)nc(NC2CC2)c1Br [Example 8, 5-bromo-N^4-cyclopropyl-2-(1H-pyrazol-1-yl)pyrimidine-4,6-diamine]	0.018
Nc1nc(-n2cccn2)nc(OCC(F)(F)F)c1Br [Example 44, 6-(2,2,2-trifluoroethoxy)-5-bromo-2-(1H-pyrazol-1-yl)pyrimidin-4-amine]	0.014
Nc1nc(-n2cccn2)nc(-n2cccn2)c1Cl [Example 46, 5-chloro-2,6-di-(1H-pyrazol-1-yl)pyrimidine-4-amine]	0.017

These reach a lower Ki. Values come first.

Ki [µM]	Compound
0.007	N#Cc1c(N)nc(-n2cccn2)nc1-n1cccn1 [Example 48, 4-amino-2,6-di-(1H-pyrazol-1-yl)pyrimidine-5-carbonitrile]
0.001	Nc1nc(-c2nccs2)nc(-c2nccs2)c1Br [Example 93, 5-Bromo-2,6-di(thiazol-2-yl)pyrimidin-4-amine]
0.01	Nc1nc(-n2cccn2)nc(NCC2CC2)c1Br [Example 29, 5-bromo-N^4-(cyclopropylmethyl)-2-(1H-pyrazol-1-yl)pyrimidine-4,6-diamine]
0.006	Nc1nc(-n2cccn2)nc(NC2CCCC2)c1Br [Example 4, 5-bromo-N^4-cyclopentyl-2-(1H-pyrazol-1-yl)pyrimidine-4,6-diamine]
0.008	CCSc1nc(-n2cccn2)nc(N)c1Br [Example 36, 5-bromo-6-(ethylthio)-2-(1H-pyrazol-1-yl)pyrimidin-4-amine]
0.007	CC(C)Sc1nc(-n2cccn2)nc(N)c1Br [Example 38, 5-bromo-6-(isopropylthio)-2-(1H-pyrazol-1-yl)pyrimidin-4-amine]
